Assay results reported in patent US20230173029A1, “TREATMENT OF CARDIAC REMODELLING” (UNIVERSITETET I OSLO, priority 2020, published 2023).

What was measured:
[1] = test system: Dahl salt-sensitive (Dahl/SS) male rats; experiment: Transthoracic echocardiography of cardiac structure and function in hypertensive Dahl/SS rats; assay type: in vivo, rat; conditions: for E/A (ratio E wave to A wave) / EF (ejection fraction) / FS (fractional shortening) / IVS; d (inter-ventricular septum, diastole) / IVS; s (inter-ventricular septum, systole) / LA (left atrium diameter) / LV Mass (left ventricular mass) / LV Vol; d (left ventricular volume, diastole) / LV Vol; s (left ventricular volume, systole) / LVPW; d (left ventricular posterior wall, diastole) / LVPW; s (left ventricular posterior wall, systole) / RWT (relative wall thickness): HT Dahl/SS rats on high salt diet, at 6 weeks, mean ± SEM
Procedure: A total of 29 adult Dahl salt-sensitive (Dahl/SS) male rats with an initial weight of 150 to 200 g were included in the study. Rats were purchased from Charles River Laboratories (USA) and housed in a room with a 12/12-hour light cycle, a temperature of 21° C., and a humidity of 55%. Rats were maintained on a normal salt diet up to seven weeks of age. Twenty-two Dahl/SS were then randomly switched to a high salt diet for 6 weeks to induce hypertension, whilst 7 rats were kept normotensive (NT) on normal salt diet. Drinking water and food was provided ad libitum.
After 2 weeks of high salt diet, 15 hypertensive (HT) rats were started on treatment with proANP31-67. Rats treated with proANP31-67 received one of two dosages: 50 ng/kg/day (n=8) or 100 ng/kg/day (n=7). A total of 14 rats received only vehicle: control rats on a normal salt diet (n=7); and HT rats on a high salt diet (n=7). Rats were randomly assigned to the 3 groups (i.e. control normal salt; high salt untreated; high salt plus treatment).
Drug or vehicle was delivered via Alzet osmotic mini-pumps (Model 2004; mean pumping rate […], mean fill volume […]) implanted subcutaneously (as instructed by the manufacturer) for 28 days. Animals were treated with buprenorphine (0.05 mg/kg s.c.) as analgesic 30 minutes before and up to 1 day following implantation of pumps.
Cardiac function was assessed by transthoracic echocardiography using a VEVO 2100 high resolution in vivo imaging system from VisualSonics (Canada). Briefly, animals were maintained under anesthesia (1.5-2% isoflurane mixed with oxygen) on a pre-warmed ECG transducer pad with body temperature and ECG monitored. Measurements were made with an MS250 transducer, frequency set at 24 MHz. M-mode in the parasternal long axis view was performed to assess the function and dimension of the left ventricle and left atrium. LVEF was calculated as 100×((LV Vol;d−LV Vol;s)/LV Vol;d). LV mass was estimated by the formula: 1.053×((LVID;d+LVPW;d+IVS;d)3−LVID;d3). Relative wall thickness (RWT) was calculated as 2×LVPW;d/LVID;d.21 Normal geometry of the heart was defined as the 95th percentile for both LV Mass and RWT of the NT group. E and A waves in left ventricular filling velocities were assessed via pulsed-wave Doppler in a parasternal long axis view. Echocardiographic analysis were performed by an operator blinded to treatment group.
Experiments were performed as described above in Example 1, using a group of 8 Dahl/SS rats which, at 7 weeks of age, were switched to a high salt diet as described above. After 2 weeks of high salt diet, this group was started on proANP31-67 treatment. The rats were administered proANP31-67 at a renal sub-therapeutic dosage of 25 ng/kg/day.

[2] = test system: Dahl salt-sensitive (Dahl/SS) male rats; experiment: Renal function and structure in hypertensive Dahl/SS rats (data not shown); assay type: in vivo, rat; conditions: HT Dahl/SS rats
[3] = 50 or 100 ng/kg/day s.c. (pooled) for 28 days

## proANP31-67: Human proANP31-67, linear peptide fragment of proANP consisting of SEQ ID NO: 1; also known as vessel dilator, VSDL (EVVPPQVLSEPNEEAGAALSPLPEVPPWTGEVSPAQR; listed as Homo sapiens)
[1]; 25 ng/kg/day s.c.
  E/A (ratio E wave to A wave): 1.47 ± 0.08
  EF (ejection fraction): 79.6 ± 1.6%
  FS (fractional shortening): 49.89 ± 1.7%
  IVS; d (inter-ventricular septum, diastole): 1.67 ± 0.03 mm
  IVS; s (inter-ventricular septum, systole): 3.12 ± 0.10 mm
  LA (left atrium diameter): 4.13 ± 0.17 mm
  LV Mass (left ventricular mass): 872.5 ± 22.5 mg
  LV Vol; d (left ventricular volume, diastole): 288.5 ± 15.4 µL
  LV Vol; s (left ventricular volume, systole): 59.44 ± 6.2 µL
  LVPW; d (left ventricular posterior wall, diastole): 1.67 ± 0.04 mm
  LVPW; s (left ventricular posterior wall, systole): 2.81 ± 0.08 mm
  RWT (relative wall thickness): 0.46 ± 0.02
[1]; [3]
  E/A (ratio E wave to A wave): 1.6 ± 0.1
  EF (ejection fraction): 78.2 ± 1.9%
  FS (fractional shortening): 48.7 ± 1.8%
  IVS; d (inter-ventricular septum, diastole): 1.7 ± 0.0 mm
  IVS; s (inter-ventricular septum, systole): 3.1 ± 0.0 mm
  LA (left atrium diameter): 4.2 ± 0.1 mm
  LV Mass (left ventricular mass): 891.7 ± 12.9 mg
  LV Vol; d (left ventricular volume, diastole): 265.1 ± 12.4 µL
  LV Vol; s (left ventricular volume, systole): 58.0 ± 6.3 µL
  LVPW; d (left ventricular posterior wall, diastole): 1.8 ± 0.0
  LVPW; s (left ventricular posterior wall, systole): 2.9 ± 0.1
  RWT (relative wall thickness): 0.52 ± 0.02
[1]; HT Dahl/SS rats, 25 ng/kg/day s.c., FIG. 5C
  diastolic function as defined by E/A ratio: preserved diastolic function
[1]; HT Dahl/SS rats, 25 ng/kg/day s.c., FIG. 5D
  change in LA diameter: much smaller change in LA diameter than the untreated HT group
[1]; HT Dahl/SS rats, 25 ng/kg/day s.c., FIG. 5E
  proportion of treated HT rats displaying normal cardiac geometry: all
[1]; HT Dahl/SS rats, 50 or 100 ng/kg/day s.c. (pooled), FIG. 1C
  E/A ratio, relative fold change to NT controls: preserved
[1]; HT Dahl/SS rats, 50 or 100 ng/kg/day s.c. (pooled), FIG. 1D
  left atrium diameter larger compared to NT rats: about 10%
[1]; HT Dahl/SS rats, 50 or 100 ng/kg/day s.c. (pooled), FIG. 1E
  proportion of treated HT rats showing normal geometry (LV mass and RWT): approximately 70%
[2]; 25 ng/kg/day s.c.
  protective effects on renal function: not to display the protective effects on renal function
[2]; 50 or 100 ng/kg/day s.c., data not shown
  effects on renal function and structure: protective effects on renal function and structure
